Results reported in PubChem BioAssay AID2060504 (Molecular Pharmacology Branch, DTP, NCI, 2025).
pIC50: −log10 of the molar value.

Tested on: 636577-100-R-J1-PDC complex spheroid viability
Assay: Anticancer human tumor 636577-100-R-J1-PDC patient-derived endometrial adenocarcinoma cell line growth inhibition [GQUAD]
Conditions: for pIC50: curve of first compound; for viability, T/C: stronger effect = lower value
From the text: DNA G-quadruplex Stabilizer Agents in Combinations in Complex Spheroids
A high-throughput screen of multi-cell type tumor spheroids was designed to identify active combinations of DNA G-quadruplex stabilizer agents and targeted small molecules. Complex spheroids include a stromal component modeled by human endothelial cells (HUVEC) and fibroblasts modeled by human mesenchymal stem cells (MSCs). The concentration ranges selected for each drug and investigational agent were based upon clinically achievable concentrations if the clinical Cmax of the agent was known.
Compounds. The drugs and investigational agents: pidnarulex (CX-5461; NSC782164), APTO-253 (NSC789042), BRACO-19 (NSC847499), peposertib (NSC802822), ceralasertib (NSC780249), elimusertib (NSC800525), camonsertib (NSC841442), AZD-1390 (NSC803789), olaparib (NSC753686), talazoparib (NSC767125), ART-558 (NSC835418), sotorasib (NSC818433), MRTX-1133 (NSC836407), SN-38 (NSC673596), topotecan (NSC609699), etoposide (NSC141540), doxorubicin (NSC123127), gemcitabine (NSC613327), 5-fluorouracil (NSC19893), paclitaxel (NSC125973), vemurafenib (NSC761431), panobinostat (NSC761190), R-306465 (JNJ-16241199; NSC773264), adavosertib (NSC754352), TP-3654 (NSC805149), carboplatin (NSC241240), KSQ-4279 (NSC840948), and staurosporine (NSC755774) were obtained from the National Cancer Institute (NCI) Developmental Therapeutics Program Chemical Repository (34). The FDA-approved anticancer drug set is available from the NCI Developmental Therapeutics Program. […] The stock solutions were prepared in dimethyl sulfoxide (DMSO, Sigma-Aldrich, St. Louis, MO, cat. D2650) at 800-fold the tested concentration and stored at -70 degrees C prior to their use. All drugs and investigational agents were tested over a range starting from a high concentration at or near the clinical Cmax and decreasing in half-log increments. If the clinical Cmax for an agent had not been determined, the highest concentration tested was 10 microM.
2.3 Cell Culture. All cells were maintained in an incubator at 37 degrees C and 5% CO2 with 95% humidity. The PDC lines were cultured according to standard operating procedures established by the NCI PDMR. All PDCs were thawed and cultured in Matrigel-coated flasks prepared with a working solution of 1X Ham's F-12 nutrient mix, without supplementation (Invitrogen, cat. 11765054), 100 U/mL penicillin-streptomycin (Invitrogen, cat. 15140122), and 2.5% Matrigel (Corning Inc., cat. 354248) for the first three passages. The 857933-349-R-J2-PDC line was cultured in 6C/Colon 1B media, which includes advanced DMEM/F-12 (Thermo Fisher Scientific, cat. 12634028), 10 mM HEPES (Thermo Fisher Scientific, cat. 15630080), 1X GlutaMAX supplement (Thermo Fisher Scientific, cat. 35050061), 0.1 mg/mL primocin (InvivoGen, cat. ant-pm-2), 10% defined fetal bovine serum, heat inactivated (HyClone Laboratories Inc., cat. SH30070.03HI), 50% L-WRN conditioned media (ATCC, cat. CRL-3276), 1.25 mM N-Acetyl-L-cysteine (Sigma-Aldrich, cat. A9165), 10 mM nicotinamide (Sigma-Aldrich, cat. N0636), 1X B-27 supplement (Thermo Fisher Scientific, cat. 17504044), 1X N-2 supplement (Thermo Fisher Scientific, cat. 17502048), 10 microM Y-27632 dihydrochloride (Tocris Bioscience, cat. 1254), and 50 ng/mL human EGF recombinant protein (Thermo Fisher Scientific, cat. PHG0311). The 485176-168-R4-J1-PDC line was cultured in Panc media, which includes all 6C/Colon 1B media components plus 100 ng/mL human FGF-10 (Thermo Fisher Scientific, cat. 100-26), 500 nM SB-431542 (Selleckchem, cat. S1067), and gastrin (Tocris, cat. 3006).
[…]
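Also: viability read after seven days of drug exposure.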
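For viability, T/C in this document: luminescence signal used as a proxy for viable cells; 100% = DMSO vehicle control wells.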

## Cn1ncnc1[C@H]1c2n[nH]c(=O)c3cc(F)cc(c23)N[C@@H]1c1ccc(F)cc1 + Cc1cnc(CNC(=O)c2c(=O)c3ccc(N4CCCN(C)CC4)nc3n3c2sc2ccccc23)cn1
Second compound 0.0316 µM
  pIC50: > 9.00
Second compound 0.1 µM
  pIC50: > 9.00
Second compound 0.316 µM
  pIC50: > 9.00
Second compound 1 µM
  pIC50: > 9.00
Second compound 3.16 µM
  pIC50: > 9.00
Second compound 10 µM
  pIC50: > 9.00
Second compound 0.0316 µM, first compound 0.000999 µM
  viability, T/C: 47.9%
Second compound 0.0316 µM, first compound 0.00316 µM
  viability, T/C: 25.6%
Second compound 0.0316 µM, first compound 0.00999 µM
  viability, T/C: 39.7%
Second compound 0.0316 µM, first compound 0.0316 µM
  viability, T/C: 24%
Second compound 0.0316 µM, first compound 0.0999 µM
  viability, T/C: 24.7%
Second compound 0.0316 µM, first compound 0.316 µM
  viability, T/C: 24.9%
Second compound 0.1 µM, first compound 0.000999 µM
  viability, T/C: 26.9%
Second compound 0.1 µM, first compound 0.00316 µM
  viability, T/C: 26.9%
Second compound 0.1 µM, first compound 0.00999 µM
  viability, T/C: 26.6%
Second compound 0.1 µM, first compound 0.0316 µM
  viability, T/C: 20.6%
Second compound 0.1 µM, first compound 0.0999 µM
  viability, T/C: 24.1%
Second compound 0.1 µM, first compound 0.316 µM
  viability, T/C: 19.9%
Second compound 0.316 µM, first compound 0.000999 µM
  viability, T/C: 21%
Second compound 0.316 µM, first compound 0.00316 µM
  viability, T/C: 23.2%
Second compound 0.316 µM, first compound 0.00999 µM
  viability, T/C: 21.1%
Second compound 0.316 µM, first compound 0.0316 µM
  viability, T/C: 22.9%
Second compound 0.316 µM, first compound 0.0999 µM
  viability, T/C: 21.8%
Second compound 0.316 µM, first compound 0.316 µM
  viability, T/C: 19.2%
Second compound 1 µM, first compound 0.000999 µM
  viability, T/C: 20.1%
Second compound 1 µM, first compound 0.00316 µM
  viability, T/C: 19%
Second compound 1 µM, first compound 0.00999 µM
  viability, T/C: 19.8%
Second compound 1 µM, first compound 0.0316 µM
  viability, T/C: 21%
Second compound 1 µM, first compound 0.0999 µM
  viability, T/C: 19.4%
Second compound 1 µM, first compound 0.316 µM
  viability, T/C: 20.4%
Second compound 3.16 µM, first compound 0.000999 µM
  viability, T/C: 19%
Second compound 3.16 µM, first compound 0.00316 µM
  viability, T/C: 18.6%
Second compound 3.16 µM, first compound 0.00999 µM
  viability, T/C: 21.6%
Second compound 3.16 µM, first compound 0.0316 µM
  viability, T/C: 19.7%
Second compound 3.16 µM, first compound 0.0999 µM
  viability, T/C: 21.7%
Second compound 3.16 µM, first compound 0.316 µM
  viability, T/C: 19.2%
Second compound 10 µM, first compound 0.000999 µM
  viability, T/C: 15.2%
Second compound 10 µM, first compound 0.00316 µM
  viability, T/C: 18.5%
Second compound 10 µM, first compound 0.00999 µM
  viability, T/C: 21.9%
Second compound 10 µM, first compound 0.0316 µM
  viability, T/C: 19.4%
Second compound 10 µM, first compound 0.0999 µM
  viability, T/C: 21.9%
Second compound 10 µM, first compound 0.316 µM
  viability, T/C: 19.2%
